# Measurements: patent publication US12252477B2, “Applications of known and novel cannabinoids” (Bessor Pharma, LLC, priority 2018, dated 2025)
# Target: T1, TRPV1 channels (Homo sapiens, UniProt Q8NER1)
# T1 construct: expressed in transfected cells; host or cells: HEK TRex (HEK 293 T-REx) cells stably carrying a tetracycline-inducible TRPV1 transgene
# Assay: Calcium assay (Fluo-4) in HEK-TRPV1 cells, dose response comparison
# Type: cell-based
# Conditions: Fluo-4 loaded, 1 mM external calcium chloride, 0-20 seconds baseline, compound added at 20 seconds, FIGS. 1A-1D
# Description: Molecular Pharmacology, 2016, volume 90, pages 300-308) HEK 293 cells with TRPV1 channels have been used as model systems (P. Geppetti and M. Trevisani, Activation and sensitisation of the vanilloid receptor: role in gastrointestinal inflammation and function, British Journal of Pharmacology, 2004, volume 141, pages 1313-1320);
# HEK TRexTRPV1 cultured in DMEM, 10% Fetal Bovine Serum, 2 mM L-glutamine, 10 microgramg/ml Blasticidin (Calbiochem, San Diego Calif.), […] Zeocin (InvivoGen, San Diego Calif.), followed by inducing indicated transgene expression using 1 microgram/ml Tetracycline for 16-24 hrs. Comparisons made to untransfected HEK cells or HEKTRexTRPV1 with or without induction.
# Cells washed and incubated with 0.2 micromolar Fluo-4 [54] for 30 minutes at 37° C. in a standard modified Ringer's solution of the following composition (in mM): NaCl 145, KCl 2.8, CsCl 10, CaCl2 10, MgCl2 2, glucose 10, Hepes. NaOH 10, pH 7.4, 330 mOsm. Cells transferred to 96-well plates at 50,000 cells/well and stimulated as indicated. Calcium signals acquired using a Flexstation 3 (Molecular Devices, Sunnydale, USA). Data are analyzed according to the methods in 1. Diaz-Franulic, J. Caceres-Molina, R. V. Sepulveda, F. Gonzalez-Nilo, R. Latorre, Structure-Driven Pharmacology of Transient Receptor Potential Channel Vanilloid 1, Molecular Pharmacology, 2016, volume 90, pages 300-8. […]
# T1 sequence (Q8NER1 whole entry): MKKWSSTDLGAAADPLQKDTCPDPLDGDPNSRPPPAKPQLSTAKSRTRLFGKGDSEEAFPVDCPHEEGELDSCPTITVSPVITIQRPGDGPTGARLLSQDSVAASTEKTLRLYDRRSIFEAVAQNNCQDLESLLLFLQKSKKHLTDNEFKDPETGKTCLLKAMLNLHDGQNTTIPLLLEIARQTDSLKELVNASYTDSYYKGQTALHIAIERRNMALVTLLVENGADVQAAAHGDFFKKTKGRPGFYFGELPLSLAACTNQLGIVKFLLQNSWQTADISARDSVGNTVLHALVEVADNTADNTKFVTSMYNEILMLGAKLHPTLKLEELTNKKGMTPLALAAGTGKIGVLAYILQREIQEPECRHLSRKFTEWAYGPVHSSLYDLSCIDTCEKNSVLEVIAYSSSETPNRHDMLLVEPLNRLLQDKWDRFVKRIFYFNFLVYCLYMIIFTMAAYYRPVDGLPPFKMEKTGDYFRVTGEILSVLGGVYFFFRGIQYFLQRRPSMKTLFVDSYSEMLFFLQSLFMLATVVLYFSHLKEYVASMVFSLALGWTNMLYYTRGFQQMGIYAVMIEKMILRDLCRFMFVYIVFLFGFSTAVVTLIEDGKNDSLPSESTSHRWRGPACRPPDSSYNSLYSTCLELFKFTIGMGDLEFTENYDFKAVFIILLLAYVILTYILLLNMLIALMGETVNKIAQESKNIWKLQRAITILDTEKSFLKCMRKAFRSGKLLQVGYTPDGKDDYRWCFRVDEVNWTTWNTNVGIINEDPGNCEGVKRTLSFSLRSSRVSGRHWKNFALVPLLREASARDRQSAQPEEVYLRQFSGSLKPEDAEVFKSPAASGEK
structure (smiles),measurement,value
"C=C(C)[C@@H]1CCC(C)=C[C@H]1c1c(O)cc(CCCCC)cc1O [cannabidiol (11, CBD), Cannabidiol]","“biological finger print” and dose response on TRPV 1 channels (calcium signal), synthesized versus reference standard cannabidiol",same “biological finger print” and dose response
